What was measured:
tankyrase 1 (TNKS1) = target: T1, tankyrase 1 (TNKS1) (Homo sapiens, UniProt O95271); experiment: Tankyrase inhibitory activity test (ELISA, auto-poly(ADP-ribosyl)ation), tankyrase 1; assay type: biochemical; settings: Flag tagged tankyrase 1 (1,024-1,327aa, SAM+PARP); read-out: TNKS1 (inhibitory activity against tankyrase 1, IC50)
T1 construct: tankyrase 1 (1,024-1,327aa, SAM+PARP); made in house; host or cells: cell-free protein expression system
Experimental: (§1) The enzymatic activity of tankyrase 1 and the enzymatic activity of tankyrase 2 were measured by the ELISA method based on assessment of auto-poly(ADP-ribosyl)ation to evaluate the tankyrase inhibitory activity of the compound prepared in each of Examples (test compound) (inhibitory activity against tankyrase 1 (TNKS1) and inhibitory activity against tankyrase 2 (TNKS2)). First, Flag tagged tankyrase 1 (1,024-1,327aa, SAM+PARP) and tankyrase 2 (613-1,116aa, ANK5+SAM+PARP) were synthesized with a cell-free protein expression system, and diluted with a Tris buffer solution (50 mM Tris-HCl (pH 8.0), 150 mM NaCl, 10% glycerol). 50 μL of the diluted tankyrase 1 or tankyrase 2 was added to a plate with an anti-FLAG M2 monoclonal antibody immobilized thereon (Anti-FLAG High-Sensitivity M2-Coated Plate) (Sigma-Aldrich), and the plate was left standing overnight at 4° C. Thereafter, the plate was washed four times with a PBS (PBST) buffer containing 0.1% Triton X-100. For Example 84, the Anti-FLAG High-Sensitivity M2-Coated Plate was replaced by an immunoplate (Thermo Fisher Scientific), tankyrase 1 or tankyrase 2 was immobilized on the immunoplate, and the immunoplate was then blocked with Blocking One (nacalai tesque), then washed with a PBS (PBST) buffer, and used as the following plate.
(§2) Subsequently, the test compound diluted with an assay buffer (50 mM Tris-HCl (pH 8.0), 4 mM MgCl2, 0.2 mM DTT) (DMSO was used as a control) was added to each well of the plate, and the plate was left standing at room temperature for 10 minutes. Thereafter, a biotin-labeled NAD solution (225 μM NAD, 25 μM 6-Biotin-17-NAD (Travigen, Inc.)) was added and mixed as a donor substrate, and the mixture was reacted at 30° C. for 45 minutes. To blank wells was added distilled water instead of the biotin-labeled NAD solution. After the reaction, the plate was washed with a PBST buffer four times. Thereafter, HRP (horseradish peroxidase)-labeled streptavidin (Travigen, Inc.) was diluted with a PBS buffer by 1,000 times, and added to each well, and the mixture was reacted at room temperature for 20 minutes. The plate was washed with a PBST buffer four times, a chemiluminescent substrate solution TACS-Sapphire (Travigen, Inc.) was then added to each well, the mixture was reacted at room temperature for 20 minutes, and the chemiluminescence intensity was measured using a chemiluminescence measuring apparatus. For Example 84, the streptavidin was diluted by 5,000 times, the chemiluminescent substrate solution TACS-Sapphire was replaced by an ELISA POD substrate TMB solution easy (nacalai tesque), the mixture was reacted at room temperature for 30 minutes, and the chemiluminescence intensity was measured using a chemiluminescence measuring apparatus.
(§3) The residual enzymatic activity in the presence of the test compound was determined from the following expression. On the basis of the residual enzymatic activity at each of multiple concentrations of the test compound, the enzyme inhibitory activity was calculated in terms of a 50%-inhibition concentration (IC50 value) using data analysis software Origin (LightStone Corp.). Residual activity (%)={(chemiluminescence intensity with test compound added)−(chemiluminescence intensity of blank)}/{(chemiluminescence intensity of control)−(chemiluminescence intensity of blank)}

tankyrase 2 (TNKS2) = target: T2, tankyrase 2 (TNKS2) (Homo sapiens, UniProt Q9H2K2); experiment: Tankyrase inhibitory activity test (ELISA, auto-poly(ADP-ribosyl)ation), tankyrase 2; assay type: biochemical; settings: Flag tagged tankyrase 2 (613-1,116aa, ANK5+SAM+PARP); read-out: TNKS2 (inhibitory activity against tankyrase 2, IC50)
T2 construct: tankyrase 2 (613-1,116aa, ANK5+SAM+PARP); made in house; host or cells: cell-free protein expression system
Experimental: as §1, §2, §3

[1] = test system: human colorectal cancer cell line COLO-320DM; experiment: Cell proliferation inhibitory activity test (Celltiter-Glo); assay type: cell-based; settings: COLO-320DM cells, 96 hours
Experimental: The cell proliferation inhibitory activity of the compound, which had been prepared in each of Examples, against the human colorectal cancer cell line COLO-320DM was evaluated by Celltiter-Glo Luminescent Cell Viability Assay (Promega Corporation; G7573). COLO-320DM cells were cultured in RPMI-1640 medium containing 2 mM glutamine (Wako Pure Chemical Industries, Ltd; 189-02025) supplemented with 10% fetal bovine serum. The cultured cells were washed with PBS, and then dissociated with trypsin/EDTA, and a cell solution with 3×10^4 cells/mL was prepared.
Subsequently, the cell solution was seeded in a 96-well microplate (Thermo/Nunc Company; 136101) in an amount of 70 μL per well, and cultured overnight under the condition of 37° C. and 5% CO2. Next day, a test compound solution obtained by diluting the test compound (DMSO solution) with a cell culture medium (final concentration of DMSO was 1%) was added in an amount of 10 μL per well, and the mixture was reacted under the condition of 37° C. and 5% CO2 for 96 hours (a 1% DMSO solution was used as a control). Thereafter, a Celltiter-GloLuminescent Cell Viability Assay reagent (Promega Corporation; G7573) was added in an amount of 80 μL per well, the mixture was stirred with a shaker for 2 minutes while light was blocked with an aluminum foil, and the mixture was incubated at room temperature for 10 minutes.
Thereafter, a luminescence signal was measured with a luminometer (Biotech Company; Synergy). The ratio of cell proliferation in each compound addition group to cell proliferation in a control group containing no test compound solution, where cell proliferation in the control group is 100%, was calculated and the value of a compound concentration necessary for suppressing the amount of residual cells to 50% of that in the control (GI50) was calculated as the cytostatic activity. […] An unevaluated test compound was designated as “NT”.

T1 sequence (O95271 1024-1327): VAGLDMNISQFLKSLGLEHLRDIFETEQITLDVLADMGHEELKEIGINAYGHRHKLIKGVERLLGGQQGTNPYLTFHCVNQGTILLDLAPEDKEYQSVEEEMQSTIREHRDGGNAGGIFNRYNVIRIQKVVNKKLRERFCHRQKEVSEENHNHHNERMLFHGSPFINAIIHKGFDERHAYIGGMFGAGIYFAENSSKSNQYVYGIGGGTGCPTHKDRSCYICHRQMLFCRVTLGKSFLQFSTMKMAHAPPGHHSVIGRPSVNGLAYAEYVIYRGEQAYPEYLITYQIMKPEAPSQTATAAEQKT

SMILES	IC50 (tankyrase 1 (TNKS1))	IC50 (tankyrase 2 (TNKS2))	GI50 [1]
COc1ccc(-c2n[nH]cc2C2NC(=O)c3ccccc3N2CC2CC2)cc1 (stereo not drawn) [Example 14, 1-(Cyclopropylmethyl)-2-[5-(4-methoxyphenyl)-1H-pyrazol-4-yl]-2,3-dihydroquinazolin-4-one]	0.02 to 0.05 µM	0.02 to 0.05 µM	≥ 10 µM
CN1c2ccccc2C(=O)NC1c1c[nH]nc1-c1ccc(-c2ccnc3[nH]ccc23)cc1 (stereo not drawn) [Example 39, 1-Methyl-2-[3-[4-(1H-pyrrolo[2,3-b]pyridin-4-yl)phenyl]-1H-pyrazol-4-yl]-2,3-dihydroquinazolin-4-one]	0.02 to 0.05 µM	0.02 to 0.05 µM	≥ 10 µM
CN1c2ccccc2C(=O)NC1c1c[nH]nc1-c1ccc(Oc2ccccc2)cc1 (stereo not drawn) [Example 18, 1-Methyl-2-[3-(4-phenoxyphenyl)-1H-pyrazol-4-yl]-2,3-dihydroquinazolin-4-one]	0.02 to 0.05 µM	< 0.005 µM	≥ 10 µM
CN(C)c1ccc(-c2ccc(-c3n[nH]cc3C3NC(=O)c4ccccc4N3C)cc2)cc1 (stereo not drawn) [Example 34, 2-[5-[4-[4-(Dimethylamino)phenyl]phenyl]-1H-pyrazol-4-yl]-1-methyl-2,3-dihydroquinazolin-4-one]	0.02 to 0.05 µM	0.02 to 0.05 µM	1 to 10 µM
CN1c2ccccc2C(=O)NC1c1c[nH]nc1-c1cccc(NC(=O)Nc2ccccc2)c1 (stereo not drawn) [Example 5, 1-[3-[4-(1-Methyl-4-oxo-2,3-dihydroquinazolin-2-yl)-1H-pyrazol-3-yl]phenyl]-3-phenylurea]	0.005 to 0.02 µM	0.005 to 0.02 µM	≥ 10 µM
CN1c2ccccc2C(=O)NC1c1c[nH]nc1-c1ccc(-c2ccccc2)cc1 (stereo not drawn) [Example 17, 1-Methyl-2-[3-(4-phenylphenyl)-1H-pyrazol-4-yl]-2,3-dihydroquinazolin-4-one]	0.02 to 0.05 µM	< 0.005 µM	≥ 10 µM
CN1c2ccccc2C(=O)NC1c1c[nH]nc1-c1ccc(-c2cccc(O)c2)cc1 (stereo not drawn) [Example 24, 2-[3-[4-(3-Hydroxyphenyl)phenyl]-1H-pyrazol-4-yl]-1-methyl-2,3-dihydroquinazolin-4-one]	0.005 to 0.02 µM	0.005 to 0.02 µM	≥ 10 µM
COC(=O)c1ccc(-c2n[nH]cc2C2NC(=O)c3ccccc3N2C)cc1 (stereo not drawn) [Example 1, Methyl 4-[4-(1-methyl-4-oxo-2,3-dihydroquinazolin-2-yl)-1H-pyrazol-5-yl]benzoate]	0.02 to 0.05 µM	0.005 to 0.02 µM	
CN1CCN(c2ccc(-c3ccc(-c4n[nH]cc4C4NC(=O)c5ccccc5N4C)cc3F)cc2)CC1 (stereo not drawn) [Example 44, 2-[5-[3-Fluoro-4-[4-(4-methylpiperazin-1-yl)phenyl]phenyl]-1H-pyrazol-4-yl]-1-methyl-2,3-dihydroquinazolin-4-one]	0.005 to 0.02 µM	0.005 to 0.02 µM	1 to 10 µM
CN(C)c1ccc(-c2cccc(-c3n[nH]cc3C3NC(=O)c4ccccc4N3C)c2)cc1 (stereo not drawn) [Example 35, 2-[5-[3-[4-(Dimethylamino)phenyl]phenyl]-1H-pyrazol-4-yl]-1-methyl-2,3-dihydroquinazolin-4-one]	0.02 to 0.05 µM	0.02 to 0.05 µM	≥ 10 µM
CN1c2ccccc2C(=O)NC1c1c[nH]nc1-c1ccc(C(=O)O)cc1 (stereo not drawn) [Example 2, 4-[4-(1-Methyl-4-oxo-2,3-dihydroquinazolin-2-yl)-1H-pyrazol-5-yl]benzoic Acid]	< 0.005 µM	< 0.005 µM	
O=C1NC(c2c[nH]nc2-c2ccccc2)Nc2ccccc21 (stereo not drawn) [Example 9, 2-(3-Phenyl-1H-pyrazol-4-yl)-2,3-dihydro-1H-quinazolin-4-one]	0.02 to 0.05 µM	0.02 to 0.05 µM	

Second part, the compound after the results:

IC50 (tankyrase 1 (TNKS1))	IC50 (tankyrase 2 (TNKS2))	GI50 [1]	SMILES
< 0.005 µM	< 0.005 µM	1 to 10 µM	COc1ccc(-c2c[nH]nc2C2NC(=O)c3ccccc3N2C)cc1 (stereo not drawn) [Example 86, 2-[4-(4-Methoxyphenyl)-1H-pyrazol-3-yl]-1-methyl-2,3-dihydro-1H-quinazolin-4-one]
0.005 to 0.02 µM	0.005 to 0.02 µM	1 to 10 µM	CN1c2ccccc2C(=O)NC1c1n[nH]nc1-c1ccc(Br)cc1 (stereo not drawn) [Example 60, 2-[4-(4-Bromophenyl)-2H-1,2,3-triazol-5-yl]-1-methyl-2,3-dihydroquinazolin-4-one]
0.005 to 0.02 µM	< 0.005 µM	1 to 10 µM	CCc1cccc2c1NC(c1n[nH]nc1-c1ccc(OC)cc1)NC2=O (stereo not drawn) [Example 81, 8-Ethyl-2-[4-(4-methoxyphenyl)-2H-1,2,3-triazol-5-yl]-2,3-dihydro-1H-quinazolin-4-one]
0.005 to 0.02 µM	< 0.005 µM	1 to 10 µM	COc1ccc(-c2n[nH]nc2C2NC(=O)c3ccccc3N2C)cc1 (stereo not drawn) [Example 58, 2-[5-(4-Methoxyphenyl)-2H-1,2,3-triazol-4-yl]-1-methyl-2,3-dihydroquinazolin-4-one]
0.005 to 0.02 µM	< 0.005 µM	1 to 10 µM	COc1ccc(-c2c[nH]nc2C2NC(=O)c3ccccc3N2)cc1 (stereo not drawn) [Example 85, 2-[4-(4-Methoxyphenyl)-1H-pyrazol-3-yl]-2,3-dihydro-1H-quinazolin-4-one]
0.005 to 0.02 µM	0.005 to 0.02 µM	< 1 µM	[2H]C([2H])([2H])Oc1ccc(-c2n[nH]nc2C2NC(=O)c3cccc(C)c3N2)cc1 (stereo not drawn) [Example 77]
0.005 to 0.02 µM	0.005 to 0.02 µM	1 to 10 µM	CCOc1ccc(-c2n[nH]nc2C2NC(=O)c3ccccc3N2C)cc1 (stereo not drawn) [Example 63, 2-[5-(4-Ethoxyphenyl)-2H-1,2,3-triazol-4-yl]-1-methyl-2,3-dihydroquinazolin-4-one]
< 0.005 µM	< 0.005 µM	1 to 10 µM	COc1ccc(-c2c[nH]nc2C2NC(=O)c3cccc(C)c3N2)cc1 (stereo not drawn) [Example 87, 2-[4-(4-Methoxyphenyl)-1H-pyrazol-3-yl]-8-methyl-2,3-dihydro-1H-quinazolin-4-one]
0.005 to 0.02 µM	< 0.005 µM	1 to 10 µM	Cc1cccc2c1NC(c1n[nH]nc1-c1ccc(OCC(F)F)cc1)NC2=O (stereo not drawn) [Example 78, 2-[4-[4-(2,2-Difluoroethoxy)phenyl]-2H-1,2,3-triazol-5-yl]-8-methyl-2,3-dihydro-1H-quinazolin-4-one]
0.005 to 0.02 µM	0.005 to 0.02 µM	≥ 10 µM	COc1ccc(-c2n[nH]cc2C2NC(=O)c3cccc(C)c3N2)cc1F (stereo not drawn) [Example 56, 2-[5-(3-Fluoro-4-methoxyphenyl)-1H-pyrazol-4-yl]-8-methyl-2,3-dihydro-1H-quinazolin-4-one]
